Results on 33 compounds are retold here after ChEMBL document CHEMBL1141004, “N-((8-hydroxy-5-substituted-quinolin-7-yl)(phenyl)methyl)-2-phenyloxy/amino-acetamide inhibitors of ADAMTS-5 (Aggrecanase-2)” (Bioorg Med Chem Lett, 2008).

In this series the target is Cytochrome P450 3A4 (Homo sapiens, UniProt P08684). The series can be described thus: Inhibition of CYP3A4 at 30 uM by FRET assay. In kind it is ADME.
Cytochrome P450 3A4, sequence (P08684 whole entry): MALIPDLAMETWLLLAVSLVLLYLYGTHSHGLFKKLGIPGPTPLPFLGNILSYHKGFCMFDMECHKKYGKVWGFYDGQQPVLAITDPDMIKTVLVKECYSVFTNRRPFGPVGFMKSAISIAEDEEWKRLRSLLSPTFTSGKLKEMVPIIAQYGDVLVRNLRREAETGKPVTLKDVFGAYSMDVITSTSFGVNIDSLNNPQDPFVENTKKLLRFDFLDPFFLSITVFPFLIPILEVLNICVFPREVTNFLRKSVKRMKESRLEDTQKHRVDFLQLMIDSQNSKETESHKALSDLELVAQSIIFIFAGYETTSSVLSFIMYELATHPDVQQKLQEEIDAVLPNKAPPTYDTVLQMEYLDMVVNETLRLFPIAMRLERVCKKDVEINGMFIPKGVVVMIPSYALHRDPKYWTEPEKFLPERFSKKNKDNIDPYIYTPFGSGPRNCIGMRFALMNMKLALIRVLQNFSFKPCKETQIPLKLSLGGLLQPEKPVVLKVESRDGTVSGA
As to `O=C(COc1ccccc1)NC(c1ccccc1)c1cc(Cl)c2cccnc2c1O` (stereo not drawn), the inhibition (INH) worked out at 5%.

`CN(CC(=O)NC(c1cccc([N+](=O)[O-])c1)c1cc(Cl)c2cccnc2c1O)Cc1ccccc1` (stereo not drawn) showed an inhibition (INH) of 20%.

`Cc1cc(OCC(=O)NC(c2ccccc2Cl)c2cc(Cl)c3cccnc3c2O)ccc1Cl` (stereo not drawn) showed an inhibition (INH) of 30%.

`CC(=O)c1ccc(OCC(=O)NC(c2cccc([N+](=O)[O-])c2)c2cc(Cl)c3cccnc3c2O)cc1` (stereo not drawn) registered an inhibition (INH) of 18%.

As to `O=C(COc1ccccc1)NC(c1cccc(F)c1)c1cc(Cl)c2cccnc2c1O` (stereo not drawn), the inhibition (INH) is 57%.

`CC(C)(C)c1ccc(OCC(=O)NC(c2ccccc2Cl)c2cc(Cl)c3cccnc3c2O)cc1` (stereo not drawn) showed an inhibition (INH) of 10%.

`O=C(COc1ccccc1)NC(c1ccccc1)c1ccc2cccnc2c1O` (stereo not drawn): the inhibition (INH) is 56%.

`O=C(COc1ccc(Cl)cc1)NC(c1ccccc1)c1cc(Cl)c2cccnc2c1O` (stereo not drawn) came in with an inhibition (INH) of 2%.

In turn, `O=C(COc1ccccc1)NC(c1ccccc1F)c1cc(Cl)c2cccnc2c1O` (stereo not drawn) had an inhibition (INH) of 24%.

`Cc1cc(NCC(=O)NC(c2cccc(F)c2)c2cc(Cl)c3cccnc3c2O)ccc1Cl` (stereo not drawn): the inhibition (INH) turned out to be 14%.

Consider `Cc1ccc(C(NC(=O)CNc2ccc(Cl)c(C)c2)c2cc(Cl)c3cccnc3c2O)cc1` (stereo not drawn), for which the inhibition (INH) worked out at 12%.

For `CC(=O)Nc1ccc(OCC(=O)NC(c2cccc(F)c2)c2cc(Cl)c3cccnc3c2O)cc1` (stereo not drawn), the inhibition (INH) was determined as 31%.

`COc1ccc(C(NC(=O)COc2cccc(N(C)C)c2)c2cc(Cl)c3cccnc3c2O)cc1` (stereo not drawn) yielded an inhibition (INH) of 56%.

Turning to `Cc1cc(NCC(=O)NC(c2cccc([N+](=O)[O-])c2)c2cc(Cl)c3cccnc3c2O)ccc1Cl` (stereo not drawn), the inhibition (INH) was 17%.

On to `Cc1ccc(C(NC(=O)COc2ccccc2)c2cc(Cl)c3cccnc3c2O)cc1` (stereo not drawn), for which the inhibition (INH) was determined as 45%.

Take `O=C(COc1ccccc1)NC(c1ccccc1)c1cc(F)c2cccnc2c1O` (stereo not drawn): the inhibition (INH) came out at 22%.

For the compound `O=C(COc1ccccc1)NC(c1ccc([N+](=O)[O-])cc1)c1cc(Cl)c2cccnc2c1O` (stereo not drawn), the inhibition (INH) is 13%.

In turn, `Cc1cc(C(NC(=O)COc2ccccc2)c2ccccc2Cl)c(O)c2ncccc12` (stereo not drawn) showed an inhibition (INH) of 55%.

In turn, `Cc1ccccc1C(NC(=O)COc1ccccc1)c1cc(Cl)c2cccnc2c1O` (stereo not drawn) showed an inhibition (INH) of 10%.

Regarding `O=C(COc1ccccc1)NC(c1ccccc1Cl)c1cc(Br)c2cccnc2c1O` (stereo not drawn), the inhibition (INH) was 33%.

`O=C(COc1ccccc1)NC(c1cccc([N+](=O)[O-])c1)c1cc(Br)c2cccnc2c1O` (stereo not drawn) registered an inhibition (INH) of 38%.

For the compound `O=C(COc1cc(Cl)cc(Cl)c1)NC(c1cccc([N+](=O)[O-])c1)c1cc(Cl)c2cccnc2c1O` (stereo not drawn), the inhibition (INH) was 20%.

For the compound `O=C(COc1ccccc1)NC(c1ccccc1)c1cc([N+](=O)[O-])c2cccnc2c1O` (stereo not drawn), the inhibition (INH) was 20%.

For the compound `O=C(COc1ccccc1)NC(c1ccccc1Cl)c1cc([N+](=O)[O-])c2cccnc2c1O` (stereo not drawn), the inhibition (INH) came out at 35%.

In turn, `COc1ccc(C(NC(=O)COc2ccccc2)c2cc(Cl)c3cccnc3c2O)cc1` (stereo not drawn) showed an inhibition (INH) of 54%.

Take `COc1ccc(C(NC(=O)COc2ccc(NC(C)=O)cc2)c2cc(Cl)c3cccnc3c2O)cc1` (stereo not drawn): the inhibition (INH) is 37%.

Compound `CC(=O)c1ccc(NCC(=O)NC(c2cccc([N+](=O)[O-])c2)c2cc(Cl)c3cccnc3c2O)cc1` (stereo not drawn) came in with an inhibition (INH) of 27%.

As for `CC(=O)Nc1ccc(OCC(=O)NC(c2ccccc2Cl)c2cc(Cl)c3cccnc3c2O)cc1` (stereo not drawn), the inhibition (INH) is 4%.

In the case of `Cc1ccc(C(NC(=O)COCc2ccccc2)c2cc(Cl)c3cccnc3c2O)cc1` (stereo not drawn), the inhibition (INH) was 45%.

`COc1ccc(C(NC(=O)COc2ccc(Oc3ccccc3)cc2)c2cc(Cl)c3cccnc3c2O)cc1` (stereo not drawn): the inhibition (INH) was 21%.

`N#Cc1ccccc1C(NC(=O)COc1ccccc1)c1cc(Cl)c2cccnc2c1O` (stereo not drawn) displayed an inhibition (INH) of 26%.

In turn, `O=C(CNCc1ccccc1)NC(c1ccccc1Cl)c1cc(Cl)c2cccnc2c1O` (stereo not drawn) registered an inhibition (INH) of 36%.

For `CN(CC(=O)NC(c1cccc(F)c1)c1cc(Cl)c2cccnc2c1O)c1ccccc1` (stereo not drawn), the inhibition (INH) was determined as 41%.
